# From PMC7865627, “Small Molecule-Based Prodrug Targeting Prostate Specific Membrane Antigen for the Treatment of Prostate Cancer” (Cancers, 2021)
# Like-named read-outs stand apart in the source and are kept apart here. *1 amine or outer side, *2 acyl side, *3 side chain or, on linkers, in order; H or OH if unused. Where a SMILES comes first, the peptide text is derived from it. Bridges are numbered along the chain shown (N, C = ends). Roman numbers before positions name the chains, in order. [ ]: non-standard residue; d: D form. The star is where a group is joined. X3 = CN1/C(=C/C=C/C=C/C2=[N+](CCCCCC(=O)*)c3ccc4ccccc4c3C2(C)C)C(C)(C)c2c1ccc1ccccc21; Dolaproine = CO[C@@H]([C@@H]1CCCN1)[C@@H](C)C(=O)O; Dil = CC[C@H](C)[C@H](NC)[C@@H](CC(=O)O)OC; X4 = O=C1CC([*:2])C(=O)N1CCCCCC(=O)[*:1]; γGlu = O=C(O)[C@H](CCC(=O)[*:2])N[*:1]; PABC = O=C(OCc1ccc(N[*:1])cc1)[*:2]; X2 = C[C@@H](N*)[C@@H](O)c1ccccc1; Trx = NC[C@H]1CC[C@H](C(=O)O)CC1; Cit = NC(=O)NCCC[C@H](N)C(=O)O; NMeV = CN[C@H](C(=O)O)C(C)C; CO = O=C([*:1])[*:2]; Ahx = NCCCCCC(=O)O
# Assays:
# PSMA receptor = conditions: cited from earlier work
# Source text: Prostate-specific membrane antigen (PSMA) is a type II transmembrane protein that is overexpressed (by 100–1000 fold) by virtually all prostate cancers. PSMA expression is further increased in poorly differentiated, metastatic, hormone-refractory carcinomas and in cancer cells from castration-resistant prostate cancer patients. Increased PSMA expression is correlated with the risk of early prostate cancer recurrence after radical prostatectomy. […] BIND014 increased intr ...
# [1] = tested on: PSMA-positive PC3pip cells; experiment: In vitro cytotoxicity assay (CCK-8), PC3pip; type: cell-based, human
# Protocol: (§1) Cells (1000/well) were seeded in 96-well culture plates the day before treatment.
# [2] = tested on: PSMA-negative PC3flu cells; experiment: In vitro cytotoxicity assay (CCK-8), PC3flu; type: cell-based, human; conditions: 72 h incubation, CCK-8; mean ± SD
# Protocol: as §1
# [3] = tested on: tumor-free athymic nude mice; experiment: Maximum tolerated dose, single i.v. dose; type: in vivo, mouse; conditions: male nude mice, 3 per dose group, 14 days, 20% body weight loss or overt toxicity as end point
# Source text: Mice were monitored daily for 14 days.
# [4] = tested on: heterotopic PC3pip tumors; experiment: Heterotopic PC3pip tumor survival study; type: in vivo
# Protocol: Male athymic nude mice were implanted subcutaneously with 1 × 10^6 of PC3pip cells 100 μL of matrigel. When tumor size reached approximately 100 mm^3 (tumor volume = Length × width^2/2), mice received drugs through tail vein injection every 4 days with a total of five doses. Mice were treated every 4 days with a total of five doses. Animals were weighed and tumor size measured every other day for 90 days. Cures were defined as no tumor present at end of the 90-day study. When tumors became too large or animals were moribund they were euthanized. Five mice were used in each group.
# human liver cathepsin B = biological target: T1, human liver cathepsin B (Homo sapiens, UniProt P07858); experiment: Enzymatic cleavage by cathepsin B, HPLC analysis; type: in vitro ADME; conditions: activated human liver cathepsin B, 2 μM conjugate, 37 °C, triplicate
# T1 construct: purchased Anthens Research and Technology, Anthens, AL, USA (so in the source); host or cells: human liver (tissue-derived enzyme)
# Protocol: (§2) Cathepsin is a prevalent protease that PSMA internalized ligands will encounter as they enter into late endosomes/lysosomes. To investigate if PSMA-targeted drug conjugates were cleavable by cathepsin B, the two conjugates were incubated with or without cathepsin protease and chromatographed by high performance liquid chromatography (HPLC).
# (§3) At different time intervals, 40 μL of the solution was taken out into tubes loaded with 1 μL of 1 mM E64 protease inhibitor. […] Studies were performed in triplicate.
# [5] = tested on: α-tubulin in PC3flu cells; experiment: Immunofluorescence analysis of alpha-tubulin, PC3flu; type: cell-based, human; conditions: 5 nM, 24 h, Alexa Fluor 488 α-tubulin antibody
# Protocol: (§4) Cells were washed and fixed with 4% paraformaldehyde for 10 min, permeabilized with 0.1% Triton™ X-100 for 10 min, and blocked with 1% BSA for 1 h at room temperature. Alpha-tubulin (B5-1-2) Alexa Fluor 488 Mouse Monoclonal Antibody (Invitrogen) was then added at 2 µg/mL in 0.1% BSA and incubated for 3 h at room temperature. Cells were counterstained with DAPI, mounted with Fluor-Mount aqueous mounting solution, and observed under Leica DM4000B fluorescence microscopy at 40×.
# [6] = Stability on incubation in PBS (without cathepsin), HPLC; type: in vitro ADME; conditions: incubation with PBS without cathepsin, triplicate
# Protocol: as §2, §3
# [7] = tested on: heterotopic PC3pip and PC3flu tumors; experiment: In vivo NIR fluorescence imaging, mice bearing PC3pip and PC3flu tumors; set-up: species or system mouse; conditions: 40 nmol/kg i.v., 24-h post-injection, n = 5
# Protocol: Under guidelines of the animal care and use committee at Case Western Reserve University (IACUC#150033) 6–8-week old male Balb/c athymic nude mice were implanted subcutaneously with 1 × 10^6 of PC3flu and PC3pip in 100 μL of matrigel on the left and right flank, respectively. […] Fluorescence imaging was performed using the Maestro In Vivo Imaging system (Perkin-Elmer Inc., Waltham, MA, USA). At 72-h post injection, mice were euthanized, tumor and organs were extracted for ex vivo imaging. Tumors were snap-frozen in OCT, cut into 10 μm thick sections and fixed on slides. The fluorescence signal from cy5.5 was observed under a Leica DM4000B microscope.
# [8] = tested on: PSMA-negative PC3flu cells; experiment: In vitro cellular uptake (confocal fluorescence), PC3flu; type: cell-based, human; conditions: 50 nM conjugate, 4 h, 37 °C, confocal microscopy
# Protocol: Figure 2 In vitro fluorescence studies of PSMA-1-MMAE-Cy5.5 conjugates. In vitro cellular uptake results of PSMA-targeted drug conjugates. Cells were incubated with 50 nM of drug conjugates for 4 h. Nuclei were stained by DAPI and are false colored blue, lysosomes were detected by LysoOrange and are false colored green, and drug conjugates are false colored red. Selective uptake was observed only in PC3pip cells and the conjugates were mainly located in lysosomes. Specificity of drug conjugates for PSMA binding was evaluated by including 1 mM of unlabeled PSMA-1 ligand during incubations. […] Images are taken at 40×. Representative images are shown from three independent experiments.
# PC3pip and PC3flu cells were seeded in µ-Slide 8-Well Chamber Slide (ibidi GmbH, Munich, Germany) at 2000 cells/well. […] Cells were washed with PBS and stained with DAPI and LysoOrange (Abcam Inc., Cambridge, UK) for 30 min at 37 °C and 5% CO2, after which they were washed again with PBS and fresh medium added. Selectivity was determined by including 20-fold excess of the PSMA-1 ligand. The uptake and localization of the drug conjugates were visualized under a confocal microscope (Leica Biosystem, Wetzlar, Germany) at 40×.
# [9] = tested on: α-tubulin in PC3pip cells; experiment: Immunofluorescence analysis of alpha-tubulin, PC3pip; type: cell-based, human; conditions: 5 nM, 24 h, Alexa Fluor 488 α-tubulin antibody
# Protocol: as §4
# [10] = In vitro cytotoxicity assay (CCK-8), PC3pip; type: cell-based, human
# Protocol: as §1
# [11] = tested on: heterotopic PC3pip tumors; experiment: Heterotopic PC3pip tumor survival study; type: in vivo; conditions: 160 nmol/kg, tumors extracted on day 4, compared with PSMA-1-McMMAE-Cy5.5
# [12] = 72 h incubation, CCK-8, mean ± SD
# [13] = 160 nmol/kg i.v. every 4 days, five doses, n = 5
structure (smiles),measurement,setting,value
"O=C(O)CCC(NC(=O)NC(CCC(=O)O)C(=O)O)C(=O)O (stereo not drawn) [DUPA, 2-(3-(1,3-dicarboxypropyl)-ureido) pentanedioic acid]",Ki,PSMA receptor; read-out: Ki to PSMA receptor (DUPA),8 nM
"CC[C@H](C)[C@@H]([C@@H](CC(=O)N1CCC[C@H]1[C@H](OC)[C@@H](C)C(=O)N[C@H](C)[C@@H](O)c1ccccc1)OC)N(C)C(=O)[C@@H](NC(=O)[C@@H](NC)C(C)C)C(C)C [MMAE, monomethyl auristatin E, reference compound] (H-[NMeV]V[Dil][Dolaproine]-X2)",EC50,[1]; [12],0.24 ± 0.05 nM
same,"selectivity, differential cytotoxicity ratio between PC3pip and PC3flu cells",[1]; more potent for PC3pip than PC3flu,no selectivity
same,EC50,[2],0.21 ± 0.04 nM
same,maximum tolerated dose (MTD),[3],700 nmol/kg
same,"tumor growth (in words), 160 nmol/kg",[4]; [13],did not show any antitumor activity
same,therapeutic index,[4]; MTD/effective dose,1
same,lowest dose to effectively inhibit tumor growth,"[4]; i.v. every 4 days, five doses, tumor growth inhibited for 30 days, n = 5",700 nmol/kg
CC[C@H](C)[C@@H]([C@@H](CC(=O)N1CCC[C@H]1[C@H](OC)[C@@H](C)C(=O)N[C@H](C)[C@@H](O)c1ccccc1)OC)N(C)C(=O)[C@@H](NC(=O)[C@H](C(C)C)N(C)C(=O)CCCCCN1C(=O)CC(SC[C@H](NC(=O)[C@@H](CCC(=O)O)NC(=O)[C@@H](CCC(=O)O)NC(=O)[C@@H](CCC(=O)O)NC(=O)CCCCCNC(=O)[C@H]2CC[C@H](CNC(=O)CC[C@H](NC(=O)N[C@@H](CCC(=O)O)C(=O)O)C(=O)O)CC2)C(=O)NCCCCCC(=O)N[C@@H](CCCCNC(=O)CCCCC[N+]2=C(/C=C/C=C/C=C3/N(C)c4ccc5ccccc5c4C3(C)C)C(C)(C)c3c2ccc2ccccc32)C(N)=O)C1=O)C(C)C (stereo partly drawn) [PSMA-1-McMMAE-Cy5.5],cleavage by cathepsin B (in words),human liver cathepsin B,remained intact
same,"EC50, cytotoxicity to PC3pip cells",[1]; [12],no EC50 values could be obtained
same,disruption of α-tubulin in PC3flu cells (in words),[5],no apparent disruption of tubulin
same,stability in PBS (in words),[6],stable
same,"EC50, cytotoxicity to PC3flu cells",[2],no EC50 values could be obtained
same,uptake in PSMA-negative PC3flu tumors (in words),[7],little to no detectable uptake
same,"cellular uptake, fluorescence in PC3flu cells (in words)",[8],no fluorescence signal was observed
same,disruption of α-tubulin in PC3pip cells (in words),[9],no apparent disruption of tubulin
CC[C@H](C)[C@@H]([C@@H](CC(=O)N1CCC[C@H]1[C@H](OC)[C@@H](C)C(=O)N[C@H](C)[C@@H](O)c1ccccc1)OC)N(C)C(=O)[C@@H](NC(=O)[C@H](C(C)C)N(C)C(=O)OCc1ccc(NC(=O)[C@H](CCCNC(N)=O)NC(=O)[C@@H](NC(=O)CCCCCN2C(=O)CC(SC[C@H](NC(=O)[C@@H](CCC(=O)O)NC(=O)[C@@H](CCC(=O)O)NC(=O)[C@@H](CCC(=O)O)NC(=O)CCCCCNC(=O)[C@H]3CC[C@H](CNC(=O)CC[C@H](NC(=O)N[C@@H](CCC(=O)O)C(=O)O)C(=O)O)CC3)C(=O)NCCCCCC(=O)N[C@@H](CCCCNC(=O)CCCCC[N+]3=C(/C=C/C=C/C=C4/N(C)c5ccc6ccccc6c5C4(C)C)C(C)(C)c4c3ccc3ccccc43)C(N)=O)C2=O)C(C)C)cc1)C(C)C (stereo partly drawn) [PSMA-1-VcMMAE-Cy5.5] (I: V[Cit][PABC][NMeV]V[Dil][Dolaproine]-X2 / II: {Glu-CO-γGlu-Trx-Ahx}-[dE][dE][dE]C[Ahx]K(X3)-NH2; linker I:N-II:4 via X4),cleavage by cathepsin B (in words),human liver cathepsin B,degraded rapidly
same,half-life in the presence of cathepsin,human liver cathepsin B,19.8 min
same,EC50,"[10]; 72 h, CCK-8, in the presence of protease inhibitor E64 (50 μM given for the Cy5.5 conjugates), read-out: EC50, cytotoxicity to PC3pip cells + E64",3.66 nM
same,EC50,"[10]; 72 h incubation, CCK-8, mean ± SD, read-out: EC50, cytotoxicity to PC3pip cells",0.84 nM
same,disruption of α-tubulin in PC3flu cells (in words),[5],no obvious changes in α-tubulin structure
same,stability in PBS (in words),[6],stable
same,"apoptosis, caspase 3 staining of tumors (in words)",[11],significantly more apoptosis
same,uptake in PSMA-negative PC3flu tumors (in words),[7],little to no detectable uptake
same,"cellular uptake, fluorescence in PC3flu cells (in words)",[8],no fluorescence signal was observed
same,"cures (tumor-free mice at end of 90-day study), 160 nmol/kg",[4]; [13],3/5 and three out of five
same,"tumor growth (in words), 160 nmol/kg",[4]; [13],effectively inhibited tumor growth
same,"cures, lower dose group of Figure S4B","[4]; dose group not printed beside the label, i.v. every 4 days, five doses, n = 5",1/5
same,disruption of α-tubulin in PC3pip cells (in words),[9],selective tubulin disruption
"NCCCC[C@H](NC(=O)N[C@@H](CCC(=O)O)C(=O)O)C(=O)O [ZJ24, (S)-2-(3-((S)-5-amino-1-carboxypentyl)ureido) pentanedioic acid]",Ki,PSMA receptor; read-out: Ki to PSMA (ZJ24),0.3 nM
